In PubChem BioAssay (NCI):
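Results reflect a 48-hour exposure of cells in 96-well plates to compound at five concentrations. Here, GI50 denotes the concentration required for 50% inhibition of growth. TGI: total growth inhibition.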

Experiments:
Test in all cases: NCI anticancer screen, dose series, 48 h
K-562 leukemia = test system: K-562 leukemia
HT29 colon = test system: HT29 colon
ACHN renal = test system: ACHN renal
SK-OV-3 ovarian = test system: SK-OV-3 ovarian
HCC-2998 colon = test system: HCC-2998 colon
SNB-19 CNS = test system: SNB-19 CNS
BT-549 breast = test system: BT-549 breast
MDA-N = test system: MDA-N
HOP-62 NSCLC = test system: HOP-62 NSCLC
SF-268 CNS = test system: SF-268 CNS
IGROV1 ovarian = test system: IGROV1 ovarian
KM12 colon = test system: KM12 colon
HCT-116 colon = test system: HCT-116 colon

Row | Compound | TGI (K-562 leukemia) [µM] | TGI (HT29 colon) [µM] | TGI (ACHN renal) [µM] | TGI (SK-OV-3 ovarian) [µM] | TGI (HCC-2998 colon) [µM] | GI50 (SNB-19 CNS) [µM] | TGI (SNB-19 CNS) [µM] | TGI (BT-549 breast) [µM] | TGI (MDA-N) [µM] | TGI (HOP-62 NSCLC) [µM] | TGI (SF-268 CNS) [µM] | TGI (IGROV1 ovarian) [µM] | TGI (KM12 colon) [µM] | TGI (HCT-116 colon) [µM]
1 | CC(=O)OC1COC(n2c(N)c(C#N)c(C)c(C#N)c2=S)C(OC(C)=O)C1OC(C)=O (configuration not stated) | > 100 | > 100 | > 100 | > 100 | > 100 | > 100 | > 100 | > 100 | > 100 | > 100 | > 100 | > 100 | > 100 | 
2 | CC(C)/C=N\n1c(N)c(C#N)c(C#N)c1C(C)C | > 100 | > 100 | 91.1 | > 100 | 36.4 |  | > 100 | > 100 | 76.6 | > 100 | > 100 | 77.8 | > 100 | > 100
3 | C[Si](C)(C)OC1c2[nH]c3ccccc3c2CN2C(=O)CCC12 (configuration not stated) | > 100 | > 100 | > 100 | > 100 | > 100 |  | > 100 | > 100 | > 100 | > 100 | > 100 | > 100 | > 100 | > 100
4 | C[C@]12CC(c3ccccc3O1)C(C(=O)NC13CC4CC(CC(C4)C1)C3)C(=O)N2 (some centres not stated) | 30.4 | 30.8 | > 100 | > 100 | > 100 |  | > 100 | 61.8 | 43.8 | > 100 | 96 | > 100 | > 100 | 41
5 | N#CS/C(Cl)=C(/C(Cl)=C(Cl)Cl)[N+](=O)[O-] | > 100 | > 100 | > 100 | > 100 | > 100 |  | 29.3 | > 100 | > 100 | > 100 | > 100 | > 100 | > 100 | 75.7
6 | CC1=C(OC2OC(CO)C(O)C(O)C2O)C(=O)C[C@H]2C1=CC[C@@H]1[C@@]2(C)C(=O)C[C@]2(C)[C@@H]([C@@](C)(O)C(=O)CCC(C)(C)O)[C@H](O)C[C@@]12C (some centres not stated) | > 100 | > 100 | > 100 | > 100 | > 100 |  | > 100 | > 100 | > 100 | > 100 | > 100 | > 100 | > 100 | > 100
7 | O=C1CCCc2cc3c(cc21)CCC3C(=O)O (configuration not stated) | > 100 | > 100 | > 100 | > 100 | > 100 |  | > 100 | > 100 | > 100 | > 100 | > 100 | > 100 | > 100 | > 100
8 | NC1=NC(OCC2(CO)CCC2)C=C(NCC2(CO)CCC2)N1 (configuration not stated) | > 100 | > 100 |  | > 100 | > 100 |  | > 100 | > 100 | > 100 | > 100 | > 100 | > 100 | > 100 | > 100
9 | CC1(C)OCC(C2OC(N3O[C@H](CI)C[C@@H]3c3ccccc3)C3OC(C)(C)OC23)O1 (some centres not stated) | > 100 | > 100 | > 100 | > 100 | > 100 |  | > 100 | > 100 | > 100 | > 100 | > 100 | > 100 | > 100 | > 100
10 | CN(C)CCO/N=C1/C=C2CC[C@H]3[C@@H]4CC[C@H](O)[C@@]4(C)CC[C@@H]3[C@@]2(C)CC1 | 56.8 | 5.53 | 40.9 | 44.4 | 28.1 |  | > 100 | 8.27 | 11.2 | > 87.4 | 31.6 | 25.2 | 32.4 | 31.5
11 | O=C1/C(=C\c2cccc(Oc3ccccc3)c2)SC(c2ccccc2)N1c1ccc(Cl)cc1 (configuration not stated) | > 90.8 | > 100 | > 100 | > 100 | > 100 |  | > 100 | > 100 | > 87.9 | > 100 | > 100 |  | > 100 | > 100
12 | COc1cc(-c2coc3c(OC)c(OC4OC(CO)C(O)C(O)C4O)c(OC)cc3c2=O)cc(OC)c1C (configuration not stated) | > 70.4 | 35.1 | 30 | 23.4 | 18.6 |  | 28.6 | 16.1 | 46.7 | 44.1 | 21.5 | 30.9 | 28.3 | > 100
13 | CC(=O)CCC[C@@H](C)[C@@H]1O[C@H]([C@@]2(C)CCC(=O)O2)C[C@H]2C(CSc3ccccc3)C(=O)O[C@@H]12 (some centres not stated) | > 100 | 40.1 | 28.9 | > 100 | 29.2 |  | > 100 | 27.5 | 42.2 | > 100 | 55.1 | > 38 | 28.9 | 31.2
14 | CC(=O)O[C@H]1C(=O)[C@@]2(C)[C@H]([C@H](OC(=O)C3CCCCC3)[C@]3(O)C[C@H](OC(=O)[C@H](O)[C@@H](NC(=O)C4CCCCC4)C4CCCCC4)C(C)=C1C3(C)C)[C@]1(OC(C)=O)CO[C@@H]1C[C@@H]2O | 8.96 |  | 12.4 | 19.2 | 0.27 |  | 13.3 | 0.778 | 0.00852 | 0.803 | 8.14 | 6.77 | 5.53 | 3.33
15 | C=C[C@@]1(C)CC(=O)[C@]2(O)[C@@]3(C)[C@@H](OC(C)=O)CCC(C)(C)[C@@H]3[C@H](OC(C)=O)[C@H](OC(C)=O)[C@@]2(C)O1 | > 100 | > 100 | > 100 | > 100 | > 100 |  | > 100 | > 100 | > 100 | > 100 |  | > 100 | > 100 | > 100
16 | Cc1sc2nc3n(c(=O)c2c1C)N=C(c1ccc(Cl)cc1)CS3 | > 100 | > 100 | > 100 | > 100 | > 100 |  |  | > 100 | > 100 | > 100 | > 100 |  | > 100 | > 100
17 | C=C[C@H]1CN2CCc3c([nH]c4c([C@H]5CCCN5C)c(O)ccc34)[C@@H]2C[C@@H]1C[C@H]1c2[nH]c3ccccc3c2CCN1C |  | 2.75 | 3.33 | 3.31 | 1.21 |  | 3.57 | 3.72 | 2.64 | 3 | 2.97 | 3.04 | 2.82 | 2.61
18 | CCCNC(=S)/N=C\c1c(O)c2ccccc2oc1=O |  | > 100 | > 100 | > 100 | > 100 |  | > 100 | > 100 | > 100 | > 100 | > 100 | > 100 | > 100 | > 100
19 | CC1OC(O[C@H]2CC[C@]3(C)[C@H]4CC=C5[C@@H]6[C@@H](C)[C@H](C)CC[C@]6(C(=O)O)CC[C@@]5(C(=O)O)[C@]4(C)CC[C@H]3C2(C)C)C(O)C(O)C1O (some centres not stated) | > 75 |  | > 75 | > 75 | > 75 |  | > 75 | > 75 | > 75 | > 75 | > 75 |  | > 75 | > 75
20 | O=[N+]([O-])c1cccc2nccc(NCC(O)CO)c12 (configuration not stated) | > 93.3 | 42 | 45.2 | 74.9 | 25.8 |  |  | 29.6 | 31.8 | 33.6 | 67.9 | 38.9 | 28.7 | 26.8
21 | CCOC(=O)c1ccc(C(=O)/C(C#N)=C2\CCCN2)[nH]1 | > 100 | > 100 |  | > 100 | > 100 |  | > 100 | > 100 | > 100 | > 100 | > 100 | > 100 | > 100 | > 100
22 | CC(C)CCC[C@@H](C)C1CCC2[C@@H]3CCC4CC(CCC=C(c5cc(Cl)c(OC(=O)c6ccccc6)c(C(=O)O)c5)c5cc(Cl)c(OC(=O)c6ccccc6)c(C(=O)O)c5)CC[C@]4(C)C3CC[C@@]21C (some centres not stated) | > 100 | > 100 | > 100 | > 100 | > 100 |  | > 100 | > 100 | > 100 | > 100 |  | 94.3 | > 100 | > 100
23 | C=C(C)[C@@H]1CC[C@]2(C(=O)O)CC[C@]3(C)[C@H](CC[C@@H]4[C@@]5(C)CC[C@H](C(=O)/C=C/c6ccc(O)cc6)C(C)(C)[C@@H]5CC[C@]43C)[C@@H]12 | > 100 | 45.4 |  | 36.3 | 11.4 |  | 27.7 | 38.5 | 18 | 27.8 | 94.6 | 28.3 | 18.4 | > 100
24 | CC1NC(/C(=C/c2ccccc2O)NC(=O)c2ccccc2)OC1=O (configuration not stated) | > 50 | > 50 | > 50 | > 50 | > 50 |  | > 50 | > 50 | > 50 | > 50 |  | > 50 | > 50 | > 50
